The text below walks through data of US20040204487A1, “Novel medicinal product” (priority 2002, published 2004).

Data set [1] has as its system 3T3-F442A cells. Nature of the data set: Triacylglyceride accumulation in differentiating 3T3-F442A pre-adipocytes. The class given is cell-based, murine. Conditions: for Triacylglycerides (μg/mg protein): 10 μM from confluency, control (no treatment) 0.16; for Triacylglycerides (μg/mg protein) / inhibition of cell differentiation (in words) / concentration of TAGs in the adipocytes, % relative to the control: 7 days; for inhibition of cell differentiation (in words): 10 μM; for concentration of TAGs in the adipocytes, % relative to the control: control 100% (FIG. 2). Here is the method: The pre-adipocyte lines 3T3-F442A (commercial line) and BFC 115 (from Claude Forest INSERM, St. Pères Paris V) are cultured until confluency in Dulbecco's modified Eagle medium (DMEM) (Gibco) in the presence of 5% of newborn calf serum and 5% of fetal calf serum (Gibco).
From confluency, the cells are cultured in a differentiating medium (DMEM with 10% of fetal calf serum and 20 nM of insulin) in the presence or absence of the metabolites to be tested.
The medium is renewed every two or three days.
The differentiation of the cells is evaluated either by morphological criteria (very rounded cells having accumulated large lipid vacuoles) or by measuring the average amount of triglycerides per cell (ratio of the amount of triglyceride per dish to the amount of protein per dish). Under standard culture conditions, in 8 days, 90% of the pre-adipocytes have differentiated to adipocytes.
The cells are washed with PBS phosphate buffer (Sigma), recovered from the bottom of the Petri dish by scraping with a spatula, fragmented by ultrasound (2 seconds) and then centrifuged at 10000 g for 20 minutes.
The centrifugation supernatant is removed for triacylglyceride (TAG) analysis.
To determine the average amount of triglycerides per cell at the end of the abovementioned experiments, an automated enzymatic colorimetric test (Roche method) which is based on the studies of Wahlefeld (Wahlefeld and Bergmeyer (eds). Methods of Enzymatic Analysis. 2 second edition. New York Academic Press Inc. 1974: 1831) was used as assaying method.
The 3T3-F442A pre-adipocyte cells were treated from confluency with 12(R)-HETE (10 μM), 12(S)-HETE (10 μM), 11,12-EET (10 μM) and with Δ 15-deoxy prostaglandin J2 (10 μM, Δ 15-deoxyPGJ2) in the presence or absence of 10 μM of 12(R)-HETE. The cell differentiation was evaluated after 7 days by measuring, as indicated above, the amount of triacylglycerides accumulated per mg of protein.
To do this, 3T3-F442A fibroblasts, or pre-adipocyte cells, were treated from confluency with various concentrations of 12(R)-HETE. The cell differentiation was evaluated after 7 days by measuring the amount of triacylglycerides (TAGs) accumulated per mg of protein (prot).

For data set [2], the system named is BFC-115 pre-adipocyte cells. The data set is described as follows: Triacylglyceride accumulation in differentiating BFC-115 pre-adipocytes. The class given is cell-based, murine. Conditions: 7 days; for Amount of TAG in μg/mg of protein: control 0.45; for inhibition of the differentiation of the pre-adipocytes: 10 μM. The protocol:
The pre-adipocyte lines 3T3-F442A (commercial line) and BFC 115 (from Claude Forest INSERM, St. Pères Paris V) are cultured until confluency in Dulbecco's modified Eagle medium (DMEM) (Gibco) in the presence of 5% of newborn calf serum and 5% of fetal calf serum (Gibco). From confluency, the cells are cultured in a differentiating medium (DMEM with 10% of fetal calf serum and 20 nM of insulin) in the presence or absence of the metabolites to be tested. The medium is renewed every two or three days. The differentiation of the cells is evaluated either by morphological criteria (very rounded cells having accumulated large lipid vacuoles) or by measuring the average amount of triglycerides per cell (ratio of the amount of triglyceride per dish to the amount of protein per dish). Under standard culture conditions, in 8 days, 90% of the pre-adipocytes have differentiated to adipocytes. […] The BFC-115 pre-adipocyte cells were treated from confluency with 12(R)-HETE (10 μM), 12(S)-HETE (10 μM), 11,12-EET (10 μM) and with arachidonic acid AA (100 μM). The cell differentiation was evaluated after 7 days by measuring the amount of triacylglycerides accumulated per mg of protein.

Data set [3] has as its system cells from human adipose tissue. The data set is described as follows: Triglyceride accumulation in cells from human adipose tissue. Format: cell-based. The following applies: 10 μM, pro-differentiating medium, three experiments. The text has this: In addition, cells originating from human fat tissues subsequent to surgical interventions requiring their removal were used. The removed tissues are collected on a bed of ice and immediately treated in the laboratory. The cell culture consists of a mixture of pre-adipocyte cells and adipocyte cells already differentiated.

A short description of data set [4]: Cellular toxicity markers after 8 days of treatment. The class given is cell-based. Conditions: 30 μM. Here is the method: The possible toxicity of the metabolites selected in accordance with the invention was also studied.
For this purpose, several cellular toxicity markers were measured after 8 days of treatment, namely
the LDH (lactate dehydrogenase) activity in the culture medium, a control for membrane permeabilization,
fragmentation of the nucleus by “Hoechst” staining, which is a marker for apoptosis and which is described in Leukemia, 15, 1572-81. Plenchette, S., Moutet M., Benguella M., N'Gondara J. P., Guigner F., Coffe C., Corcos L., Bettaieb A. and Solary E. (2001).

Data set [5] has as its system 3T3-F442A cells. Nature of the data set: Direct morphological examination of differentiation of fibroblasts to adipocytes. The class given is cell-based, murine. Here is the method:
The differentiation of the cells is evaluated either by morphological criteria (very rounded cells having accumulated large lipid vacuoles) or by measuring the average amount of triglycerides per cell (ratio of the amount of triglyceride per dish to the amount of protein per dish). Under standard culture conditions, in 8 days, 90% of the pre-adipocytes have differentiated to adipocytes. To show by direct morphological examination the differentiation of the fibroblasts to adipocytes in the presence or absence of the metabolites 12-HETE and/or 11,12-EET, the following procedure was carried out. The 3T3-F442A cells are treated, from confluency, with these metabolites. The treatment was renewed every 2 or 3 days throughout the entire differentiation process. The level of differentiation of the cells was evaluated by observation under a photon microscope with a 200 times magnification (see the photos shown in figures FIG. 1A, FIG. 1A1, FIG. 1B and FIG. 1B1).

The subject of data set [6] is differentiated 3T3-F442A cells. Nature of the data set: Residual level of metabolite in culture medium of differentiated cells (LC-MS). The following applies: 10 μM. Format: in vitro ADME, murine. Here is the method:
It was also determined that the residual level of 12(R)-HETE, present at a concentration of 10 μM in the culture medium of the differentiated 3T3-F442A cells, is respectively 85% and 2.3% after 6 h and 18 h of incubation.
The residual amounts of 12(R)-HETE were analyzed by LC-MS.

Data set [7] has as its system pre-adipocyte fibroblasts. The following applies: cited from earlier work.

Molecules are shown by their SMILES. Entries after “also recorded” stand apart in the source; their conditions may differ.

For `CCCCC/C=C\CC1OC1C/C=C\C/C=C\CCCC(=O)O` (stereo not drawn) [11,12-EET, 11,12-epoxyeicosatrienoic acid], in data set [1], the “Triacylglycerides (μg/mg protein)” value came to 0.08 μg/mg protein and the “inhibition of cell differentiation (in words)” value is listed as “greatly inhibit the cell differentiation”. In addition, the “Amount of TAG in μg/mg of protein” value in data set [2] (10 μM from confluency) was “=0.22 μg/mg of protein”. Besides, the “inhibition of the differentiation of the pre-adipocytes” value in data set [2] is listed as “approximately 40%”. Also, in data set [3], the “inhibition of the accumulation of triglycerides” value was 50%.

For the compound `CCCCC/C=C\C[C@@H](O)/C=C/C=C\C/C=C\CCCC(=O)O` [12(R)-HETE, 12-hydroxyeicosatetraenoic acid], in data set [4], the “cellular toxicity markers (number of cells, cell morphology, LDH activity in medium, fragmentation of the nucleus by Hoechst staining)” value was “None of these markers responds positively”. For the same compound, the “cell morphology under photon microscope” value in data set [5] (10 μM, 7 days, with or without 100 μM arachidonic acid (FIG. 1A1, 1B1)) is “spindle-shaped with very few lipid globules”. Also, the “concentration of TAGs in the adipocytes, % relative to the control” value is reported as “approximately 85%” in data set [1] (5 μM) and “approximately 25%” in data set [1] (30 μM). Besides, the “inhibition of the differentiation induced by Δ 15-deoxyprostaglandin J2” value in data set [1] (10 μM 12(R)-HETE with 10 μM 15-deoxyPGJ2, 7 days) is given as “approximately 40%”. Moreover, in data set [1], the “Triacylglycerides (μg/mg protein)” value was 0.04 μg/mg protein. Also, in data set [1], the “inhibition of cell differentiation (in words)” value is “greatly inhibit the cell differentiation; also recorded: greater than that of 12(S)-HETE”. Further, the “Amount of TAG in μg/mg of protein” value in data set [2] (10 μM from confluency) is “=0.17 μg/mg of protein”. Also, the “inhibition of the differentiation of the pre-adipocytes” value in data set [2] is given as “approximately 40%”. Further, in data set [3], the “inhibition of the accumulation of triglycerides” value came to 50%. Besides, the “penetration into the cells (conclusion from residual level)” value in data set [6] is given as “clearly penetrates into the cells”. For the same compound, the “residual level in the culture medium” value was found to be 85% in data set [6] (after 6 h of incubation) and 2.3% in data set [6] (after 18 h of incubation).

In the case of `CCCCC/C=C\C[C@@H](O)/C=C/C=C\C/C=C\CCCC(=O)O` [12(S)-HETE, 12-hydroxyeicosatetraenoic acid], in data set [1], the “Triacylglycerides (μg/mg protein)” value is on record as 0.07 μg/mg protein and the “inhibition of cell differentiation (in words)” value was “greatly inhibit the cell differentiation”. For the same compound, the “Amount of TAG in μg/mg of protein” value in data set [2] (10 μM from confluency) was “=0.28 μg/mg of protein”. For the same compound, in data set [2], the “inhibition of the differentiation of the pre-adipocytes” value is on record as “approximately 40%”.

With `CCCCC/C=C/C=C1/C(=O)C=C[C@@H]1C/C=C\CCCC(=O)O` [15-deoxyPGJ2, 15-deoxy-Δ^12,14-prostaglandin J2, reference compound], the “Triacylglycerides (μg/mg protein)” value in data set [1] is reported as 0.52 μg/mg protein. For the same compound, the “concentrations at which differentiation is accelerated” value in data set [7] is listed as 10^−5 to 10^−6 M.

Regarding `CCCCC/C=C\C/C=C\C/C=C\C/C=C\CCCC(=O)O` [AA, arachidonic acid, reference compound], the “cell morphology under photon microscope” value in data set [5] (100 μM from confluency (FIG. 1B)) is recorded as “increases the amount of cells differentiated into adipocytes”. In addition, the “Amount of TAG in μg/mg of protein” value in data set [2] (100 μM from confluency) is “=0.55 μg/mg of protein”. In addition, the “effect on differentiation (in words)” value in data set [2] (100 μM) is given as “clearly promotes the differentiation”.
